# Source: patent US20100298141A1, “SUBSTITUTED PYRIDINE N-OXIDE HERBICIDES” (E. I. DU PONT DE NEMOURS AND COMPANY, priority 2007, published 2010)
# Key:
# [1] = test system: velvetleaf; experiment: Test A pre-/postemergence greenhouse test; format: in vivo, Abutilon theophrasti; conditions: for Velvetleaf plant response rating: 0 to 100 scale
# Procedure, shortened: (§1)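 Seeds sown in a loam soil–sand blend got a preemergence directed soil spray of compound in a non-phytotoxic solvent mixture containing surfactant. Postemergence sprays of the same formulation went at the same time onto plants 2–10 cm tall at the one- to two-leaf stage. Injury was scored visually against untreated controls after about ten days in the greenhouse.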
# [2] = test system: Surinam grass; experiment: Test C pre-/postemergence test; format: in vivo, Brachiaria decumbens; conditions: Preemergence
# Procedure, shortened: (§2)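 Test chemicals were formulated with surfactant in a non-phytotoxic solvent and sprayed both on freshly planted seeds (preemergence) and on 1- to 4-leaf plants of 2–18 cm (postemergence). Flooded-paddy pots received compound directly into 3 cm of standing water, maintained for the test.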
# [3] = test system: barnyardgrass; experiment: Test C flooded paddy test; format: in vivo, Echinochloa crus-galli; conditions: Flood
# Procedure, shortened: (§3)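 Compound was added to standing water 3 cm above soil, flood maintained, and plants held in a greenhouse before visual scoring against controls at 13 to 15 days.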
# [4] = test system: bermudagrass; experiment: Test C pre-/postemergence test; format: in vivo, Cynodon dactylon
# Procedure, shortened: as §2
# [5] = test system: eastern black nightshade; experiment: Test C pre-/postemergence test; format: in vivo, Solanum ptycanthum; conditions: Preemergence
# Procedure, shortened: as §2
# [6] = test system: redroot pigweed; experiment: Test A pre-/postemergence greenhouse test; format: in vivo, Amaranthus retroflexus; conditions: for Pigweed plant response rating: 0 to 100 scale
# Procedure, shortened: as §1
# [7] = test system: giant foxtail; experiment: Test C pre-/postemergence test; format: in vivo, Setaria faberii; conditions: Preemergence
# Procedure, shortened: as §2
# [8] = test system: giant foxtail; experiment: Test A pre-/postemergence greenhouse test; format: in vivo, Setaria faberi; conditions: for Foxtail, Giant plant response rating: 0 to 100 scale
# Procedure, shortened: as §1
# [9] = test system: johnsongrass; experiment: Test C pre-/postemergence test; format: in vivo, Sorghum halepense; conditions: Preemergence
# Procedure, shortened: as §2
# [10] = test system: corn; experiment: Test A pre-/postemergence greenhouse test; format: in vivo, Zea mays; conditions: for Corn plant response rating: 0 to 100 scale
# Procedure, shortened: as §1
# [11] = test system: velvetleaf; experiment: Test C pre-/postemergence test; format: in vivo, Abutilon theophrasti; conditions: Preemergence
# Procedure, shortened: as §2
# [12] = test system: rice; experiment: Test C flooded paddy test; format: in vivo, Oryza sativa; conditions: Flood
# Procedure, shortened: as §3
# [13] = test system: wheat; experiment: Test A pre-/postemergence greenhouse test; format: in vivo, Triticum aestivum; conditions: for Wheat plant response rating: 0 to 100 scale
# Procedure, shortened: as §1
# [14] = test system: wild oat; experiment: Test C pre-/postemergence test; format: in vivo, Avena fatua; conditions: Preemergence
# Procedure, shortened: as §2
# [15] = test system: duck salad; experiment: Test C flooded paddy test; format: in vivo, Heteranthera limosa; conditions: Flood
# Procedure, shortened: as §3
# [16] = test system: lambsquarters; experiment: Test C pre-/postemergence test; format: in vivo, Chenopodium album; conditions: Preemergence
# Procedure, shortened: as §2
# [17] = test system: Goosegrass; experiment: Test C pre-/postemergence test; format: in vivo, Eleusin indica; conditions: Preemergence
# Procedure, shortened: as §2
# [18] = test system: common ragweed; experiment: Test C pre-/postemergence test; format: in vivo, Ambrosia elation; conditions: Preemergence
# Procedure, shortened: as §2
# [19] = Postemergence, 125 g ai/ha, 0 is no effect, 100 is complete control
# [20] = Postemergence, 500 g ai/ha, 0 is no effect, 100 is complete control
# [21] = Preemergence, 125 g ai/ha, 0 no effect, 100 complete control
# [22] = Preemergence, 500 g ai/ha, 0 to 100 scale where 0 is no effect and 100 is complete control
# [23] = 31 g ai/ha, scale 0 to 100 (0 no effect, 100 complete control)
# [24] = 62 g ai/ha, scale 0 to 100, 0 no effect, 100 complete control, 13 to 15 days
# [25] = 125 g ai/ha, scale 0 to 100, 0 no effect, 100 complete control, 13 to 15 days
# [26] = 250 g ai/ha, scale 0 to 100 (0 no effect, 100 complete control)
compound,measurement,setting,value
Cn1nc(C(F)(F)F)c(CS(=O)(=O)c2ccc(Cl)c[n+]2[O-])c1Cl [Compound 18],Velvetleaf plant response rating,[1]; [19],0
same,Velvetleaf plant response rating,[1]; [20],40
same,Velvetleaf plant response rating,[1]; [21],0
same,"Plant response rating, Velvetleaf",[1]; [22],40
same,Surinam Grass plant response rating,"[2]; 62 g ai/ha, scale 0 to 100",0
same,"Plant response rating, Surinam Grass",[2]; [23],0
same,"Plant response rating, Barnyardgrass",[3]; [23],0
same,"Plant response rating, Barnyardgrass",[3]; [24],30
same,"Plant response rating, Barnyardgrass",[3]; [25],75
same,"Plant response rating, Barnyardgrass",[3]; [26],85
same,Bermudagrass plant response rating,"[4]; 62 g ai/ha, Preemergence, scale 0 to 100 (0 no effect, 100 complete control)",100
same,"Plant response rating, Bermudagrass","[4]; Preemergence, 31 g ai/ha, scale 0 to 100 (0 no effect, 100 complete control)",90
same,"Plant response rating (0 to 100), Bermudagrass","[4]; Preemergence, 250 g ai/ha",100
same,Bermudagrass plant response rating,"[4]; preemergence, 125 g ai/ha, scale 0 (no effect) to 100 (complete control)",100
same,Nightshade plant response rating,"[5]; 62 g ai/ha, scale 0 to 100",60
same,"Plant response rating, Nightshade",[5]; [23],60
same,Pigweed plant response rating,[6]; [19],0
same,Pigweed plant response rating,[6]; [20],60
same,Pigweed plant response rating,[6]; [21],90
same,"Plant response rating, Pigweed",[6]; [22],100
same,"Foxtail, Giant plant response rating","[7]; 62 g ai/ha, scale 0 to 100",85
same,"Plant response rating, Foxtail, Giant",[7]; [23],65
same,"Plant response rating (0 to 100), Foxtail, Giant",[7]; 250 g ai/ha,100
same,"Foxtail, Giant plant response rating",[8]; [19],60
same,"Foxtail, Giant plant response rating",[8]; [20],80
same,"Foxtail, Giant plant response rating",[8]; [21],90
same,"Plant response rating, Foxtail, Giant",[8]; [22],100
same,Johnsongrass plant response rating,"[9]; 62 g ai/ha, scale 0 to 100",100
same,"Plant response rating, Johnsongrass",[9]; [23],5
same,"Plant response rating (0 to 100), Johnsongrass",[9]; 250 g ai/ha,100
same,Corn plant response rating,[10]; [19],0
same,Corn plant response rating,[10]; [20],50
same,Corn plant response rating,[10]; [21],0
same,"Plant response rating, Corn",[10]; [22],0
same,Velvetleaf plant response rating,"[11]; 62 g ai/ha, scale 0 to 100",0
same,"Plant response rating, Velvetleaf",[11]; [23],0
same,"Plant response rating, Rice",[12]; [23],30
same,"Plant response rating, Rice",[12]; [24],40
same,"Plant response rating, Rice",[12]; [25],80
same,"Plant response rating, Rice",[12]; [26],80
same,Wheat plant response rating,[13]; [19],0
same,Wheat plant response rating,[13]; [20],30
same,Wheat plant response rating,[13]; [21],0
same,"Plant response rating, Wheat",[13]; [22],20
same,"Oat, Wild plant response rating","[14]; 62 g ai/ha, scale 0 to 100",0
same,"Plant response rating, Oat, Wild",[14]; [23],0
same,"Plant response rating, Ducksalad",[15]; [23],0
same,"Plant response rating, Ducksalad",[15]; [24],0
same,"Plant response rating, Ducksalad",[15]; [25],80
same,"Plant response rating, Ducksalad",[15]; [26],80
same,Lambsquarters plant response rating,"[16]; 62 g ai/ha, scale 0 to 100",0
same,"Plant response rating, Lambsquarters",[16]; [23],0
same,Goosegrass plant response rating,"[17]; 62 g ai/ha, scale 0 to 100",100
same,"Plant response rating, Goosegrass",[17]; [23],90
same,"Plant response rating (0 to 100), Goosegrass",[17]; 250 g ai/ha,100
same,Ragweed plant response rating,"[18]; 62 g ai/ha, scale 0 to 100",0
same,"Plant response rating, Ragweed",[18]; [23],0
